Assay results from patent publication US20190201419A1, “COMPOUND AND METHOD FOR THE TREATMENT AND DIAGNOSIS OF NEURODEGENERATIVE CONDITIONS” (Swansea University, priority 2013, published 2019).

Key:
Lxrα = target: T1, Lxrα (Homo sapiens, UniProt Q13133); assay: Lxrα luciferase reporter assay in SN4741 neural cells; type: cell-based, mouse; details: 10 μM, 24 h
T1 construct: expressed in transfected cells; host or cells: SN4741 mouse neuronal cell line
T1 sequence (Q13133 1-447): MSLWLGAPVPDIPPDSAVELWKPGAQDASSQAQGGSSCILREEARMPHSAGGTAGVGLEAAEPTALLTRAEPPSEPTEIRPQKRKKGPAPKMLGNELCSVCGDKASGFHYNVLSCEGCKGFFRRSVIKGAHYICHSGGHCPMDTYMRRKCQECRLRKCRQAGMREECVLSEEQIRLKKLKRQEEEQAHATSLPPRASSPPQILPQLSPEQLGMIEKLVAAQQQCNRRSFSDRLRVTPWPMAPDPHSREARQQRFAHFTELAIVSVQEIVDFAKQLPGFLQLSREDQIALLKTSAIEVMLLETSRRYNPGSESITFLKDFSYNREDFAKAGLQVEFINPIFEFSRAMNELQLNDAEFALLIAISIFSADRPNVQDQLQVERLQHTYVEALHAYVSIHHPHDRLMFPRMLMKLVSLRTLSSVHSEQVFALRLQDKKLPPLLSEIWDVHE
Excerpt: Luciferase Reporter Assay.

Lxrβ-LBD = target: T2, Lxrβ-LBD (Homo sapiens, UniProt P55055); assay: Lanthascreen TR-FRET Lxrβ coactivator assay; type: binding
T2 construct: the Lxrβ-LBD tagged with glutathione-S-transferase (GST); purchased Invitrogen
T2 sequence (P55055 222-460 limits assumed): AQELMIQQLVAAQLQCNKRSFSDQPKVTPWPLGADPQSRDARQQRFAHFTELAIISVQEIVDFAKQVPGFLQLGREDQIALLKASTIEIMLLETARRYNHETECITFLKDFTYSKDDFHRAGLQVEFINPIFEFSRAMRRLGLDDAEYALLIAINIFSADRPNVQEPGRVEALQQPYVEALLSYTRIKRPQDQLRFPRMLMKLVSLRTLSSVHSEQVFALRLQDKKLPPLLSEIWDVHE
Excerpt: Lxrβ Ligand Binding Assay. For Lxrβ ligand binding activity measurement, the applicants used the Lanthascreen™ TR-FRET Lxrβ Coactivator Assay (Invitrogen). The assay uses a terbium (Tb)-labeled anti-GST antibody, a fluorescein-labeled coactivator peptide and the Lxrβ-LBD tagged with glutathione-S-transferase (GST). Binding of the agonist/ligand to Lxrβ-LBD causes a conformational change that result in an increase in the affinity of the Lxrβ for the coactivator peptide. The close proximity of the fluorescently labeled coactivator peptide to the Tb-labeled antibody causes an increase in the TR-FRET signal intensity. The TR-FRET ratio of 520/495 was calculated using a Victor multi label reader with an excitation wavelength of 340 nm and emission wavelengths of 520 nm and 495 nm, The activational capacity of potential ligands was tested in a […] polypropylene plate, following the manufacturer's protocol.

Islet-1 = Islet-1 expression in Tg[Isl1:GFP] zebrafish embryos; type: in vivo; details: 10 μM
Experimental: (§1) Quantitative PCR, Total RNA was extracted from SN4741. cells and zebrafish treated with the compounds of interest using the RNeasy Mini Kit (Qiagen), 1 μg was treated with RQ1 RNase-free DNase (Promega) and reverse transcribed using SuperScript II Reverse Transcriptase (invitrogen) and random primers (invitrogen) (RT+reaction). Parallel reactions without reverse transcriptase enzyme were done as a control (RT−reaction), and Sybergreen real-time quantitative PCR assays were performed. Expression levels were obtained by normalization with the Value of the housekeeping gene encoding actin obtained for every sample in parallel assays.
(§2) Zebrafish Strain and Maintenance Zebrafish were raised on a 14/10 h day/night cycle and were kept at 28.5 ° C. Islet-1:GFP transgenic embryos were obtained via natural spawning and staged in hours or days post fertilization (hpf and dpt) according to Kimmel et al). Embryos older than 24 hpf were treated with 0.03% phenylthiourea (PTU) to inhibit pigmentation. MO injections were performed using splice site specific zebrafish lxi MO MO injected embryos were immediately dechorionated and transferred to a 96 well plate and exposed to dimethyl sulfoxide (DMSO) treated or ligand treated medium. Compound Exposure. Islet-1:GFP embryos were collected by natural mating and immediately (at 1 cell stage) dechorionated and transferred to a 96 well plate. Each of the compounds tested were obtained as 10 mM stock and diluted in embryo medium to a final concentration of 10 μM, and 200 μL was added to each well. DMSO or propan-2-ol treated embryo medium was taken as control. Ligand solutions were replaced every 12 h with fresh ligand solution prepared in PTU treated embryo medium. Embryos were collected at 48 hpf, fixed for 4 h at room temperature with 4% paraformaldehyde and then washed and kept in PBST. Immunocytochemistry was performed using an anti-GFP antibody and fluorescence was viewed and photographed using a Zeiss Axioplan compound microscope and a Zeiss Axiocam digital camera.

abca1 = abca1 expression in zebrafish embryos; type: in vivo; details: 10 μM
Experimental: as §1
Zebrafish Strain and Maintenance Zebrafish were raised on a 14/10 h day/night cycle and were kept at 28.5 ° C. Islet-1:GFP transgenic embryos were obtained via natural spawning and staged in hours or days post fertilization (hpf and dpt) according to Kimmel et al). Embryos older than 24 hpf were treated with 0.03% phenylthiourea (PTU) to inhibit pigmentation. […] Immunocytochemistry was performed using an anti-GFP antibody and fluorescence was viewed and photographed using a Zeiss Axioplan compound microscope and a Zeiss Axiocam digital camera.

zebrafish embryos = assay: Survival of transgenic zebrafish embryos on compound exposure; type: in vivo
Experimental: as §2

SMILES | Lxrα activation, luciferase activity (fold activation) (Lxrα) | TR-FRET signal (coactivator recruitment to Lxrβ-LBD) (Lxrβ-LBD; dose response) | Islet-1 mRNA and protein level (qPCR, western blot) (Islet-1) | Islet-GFP expression (Islet-1; embryos 48 hpf) | Number of Islet1+ cells in cranial nerves (III, IV, V, VII, X) (Islet-1; embryos 48 hpf) | Islet-GFP levels after lxr morpholino injection (Islet-1; lxr MO vs control scrambled MO) | abca1 expression (abca1) | Competition with the effect of 3β,7α-diHCA in TR-FRET (Lxrβ-LBD; 3β,7α-diHCA at 10 μM plus increasing concentrations of competitor) | Competitor concentration giving significant difference from 10 μM 3β,7α-diHCA alone in TR-FRET (Lxrβ-LBD; p<0.05 vs 10 μM 3β,7α-diHCA) | Toxic effect on survival of the fish (zebrafish embryos)
CC(CCC[C@@H](C)[C@H]1CC[C@H]2[C@@H]3[C@H](O)C=C4C[C@@H](O)CC[C@]4(C)[C@H]3CC[C@]12C)C(=O)O (stereo partly drawn) [3β,7α-diHCA, 3β,7α-dihydroxycholest-5-en-26-oic acid] | have the ability to activate both Lxrs | induced FRET in a dose dependent manner to a higher degree than the other acids | accompanied by an increase in the level of Islet-1 mRNA and protein | increased Islet-GFP expression | had no significant effect on the number of Islet1+cells | lxr MO injections abolished the in vivo increase in Islet-GFP levels | enhanced expression of abca1 |  |  | 
CC(CCC[C@@H](C)[C@H]1CC[C@H]2[C@@H]3CC=C4C[C@@H](O)CC[C@]4(C)[C@H]3CC[C@]12C)C(=O)O (stereo partly drawn) [3β-HCA, 3β-hydroxycholest-5-en-26-oic acid] | activates Lxr |  |  |  |  |  |  | the effect of 3β,7α-diHCA was reduced to that of the latter acids | ≥ 5 | had a deleterious toxic effect which impaired the survival of the fish
